Common to all, as to type: cell-based
In assay [1] the target is T1, human GABAA receptor α1,β2 and γ2 subunits (Homo sapiens, UniProt P14867+P18507+P47870).
T1 construct: expressed in transfected cells; host or cells: CHO-K1 cells
Put plainly: Automated patch clamp GABAA receptor inhibition assay (IonFlux HT). As to conditions: 10 μM compound, 15 μM GABA, CHO-K1 cells, holding potential −60 mV; read-out: percentage of inhibition of the GABAA receptor. On the procedure: CHO-K1 cells stably expressing human GABAA receptor α1,β2 and γ2 subunits were used. The cells were harvested using trypsin and maintained in serum-free medium at room temperature. The cells were washed and re-suspended in extracellular solution before testing.
Experiments on human GABAA (α1β2γ2) channels were conducted using an automated patch clamp assay (IonFlux™ HT). Compounds were tested at 3 concentrations (0.1, 1, and 10 μM) in 3 to 4 cells. The external solution for recording GABAA currents was composed of sodium chloride 137 mM, potassium chloride 4 mM, calcium chloride 1.8 mM, magnesium chloride 1 mM, HEPES 10 mM, and glucose 10 mM. Both external and internal solutions were titrated with NaOH or KOH to obtain a pH of 7.35 or 7.3, respectively. The internal pipette solution contained potassium fluoride 70 mM, potassium chloride 60 mM, sodium chloride 70 mM, HEPES 5 mM, EGTA 5 mM, and Magnesium ATP 4 mM. The final concentration of vehicle used to dilute compounds was 0.33% DMSO in each well. Bicuculline (0.032 to 100 μM) was used as positive control inhibitor. GABA (15 μM) was used as agonist. […]
The compound addition sequence was the following: one addition of the EC80 concentration of GABA was added to establish baseline response. […] Peak inward currents in response to the GABA additions in the presence of a single concentration of compound were measured. […]

Assay [2] addresses T2, dopamine D1 receptor (Homo sapiens, UniProt P21728).
T2 construct: host or cells: LMtk (Ltk−) mouse fibroblast cells
Put plainly: cAMP HTRF activation assay (absence of dopamine). As to conditions: 10 μM compound, LMtk (Ltk−) cells expressing D1, read-out: activation (compared to dopamine maximal response). An excerpt: (§1) Assays have been designed to measure the effects of compounds in accordance with the present invention in the absence of dopamine (“activation assay”) and in the presence of dopamine (“potentiation assay”).
The activation assay measures the stimulation of the production of cyclic adenosinemonophosphate (cAMP) in the Homogeneous Time Resolved Fluorescent (HTRF) assay, with the maximum increase in cAMP by increasing concentrations of the endogenous agonist, dopamine, defined as 100% activation.
(§2) Cells were cultured at 37° C. in a humidified atmosphere of 5% CO2. […]
The measurement of changes in intracellular cyclic adenosinemonophopshpate (cAMP) was determined using the HTRF cAMP dynamic assay kit from CisBio (Codolet, France). Using homogenous time-resolved fluorescence technology, the assay is based on competition between native cAMP produced by cells and cAMP labelled with the dye d2. The tracer binding is determined by an anti-cAMP antibody labeled with cryptate. The effects of the compound alone (agonism) was determined by performing the assay in the absence of dopamine, whilst the effect of the compound as a positive allosteric modulator (PAM) was determined in the presence of an EC20 concentration of dopamine. […]
On the technique in general: In TR-FRET formats the signal depends on donor and acceptor labels being close together.

Assay [3] concerns the target T2, dopamine D1 receptor. Put plainly: cAMP HTRF potentiation assay (presence of EC20 dopamine).
Excerpt: as §1
The potentiation assay measures the ability of compounds to increase the levels of cAMP produced by a low-threshold concentration of dopamine. The concentration of dopamine used ([EC20]) is designed to produce 20% stimulation compared to the maximal response (100%) seen with increasing the concentration of dopamine. To measure this potentiation increasing concentrations of the compound with the [EC20] of dopamine are incubated and the potentiation is measured as increases in cAMP production and concentration of compound which produces 50% of the potentiation of the cAMP levels is measured.
as §2
The measurement of changes in intracellular cyclic adenosinemonophopshpate (cAMP) was determined using the HTRF cAMP dynamic assay kit from CisBio (Codolet, France). Using homogenous time-resolved fluorescence technology, the assay is based on competition between native cAMP produced by cells and cAMP labelled with the dye d2. The tracer binding is determined by an anti-cAMP antibody labeled with cryptate. […]

Molecules are shown by their SMILES. pEC50: −log10 of the molar value. Where “and” joins values, the source holds several entries; their conditions need not be identical. Equal values may be shown once. Some results are limits rather than exact numbers.

T2 sequence (P21728 whole entry): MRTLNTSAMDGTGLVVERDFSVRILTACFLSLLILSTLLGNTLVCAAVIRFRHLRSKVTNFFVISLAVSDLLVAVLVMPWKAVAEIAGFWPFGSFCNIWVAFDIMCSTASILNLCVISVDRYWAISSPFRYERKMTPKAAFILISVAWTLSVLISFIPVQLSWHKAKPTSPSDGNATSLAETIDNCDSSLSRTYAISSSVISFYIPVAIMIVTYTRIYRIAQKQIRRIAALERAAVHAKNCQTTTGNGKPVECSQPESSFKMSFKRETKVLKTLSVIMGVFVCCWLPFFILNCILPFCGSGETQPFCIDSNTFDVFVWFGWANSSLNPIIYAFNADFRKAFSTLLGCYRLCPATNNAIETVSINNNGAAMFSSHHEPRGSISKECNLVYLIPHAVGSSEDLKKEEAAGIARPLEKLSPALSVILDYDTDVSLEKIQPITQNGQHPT
T1 sequence (P14867 28-456): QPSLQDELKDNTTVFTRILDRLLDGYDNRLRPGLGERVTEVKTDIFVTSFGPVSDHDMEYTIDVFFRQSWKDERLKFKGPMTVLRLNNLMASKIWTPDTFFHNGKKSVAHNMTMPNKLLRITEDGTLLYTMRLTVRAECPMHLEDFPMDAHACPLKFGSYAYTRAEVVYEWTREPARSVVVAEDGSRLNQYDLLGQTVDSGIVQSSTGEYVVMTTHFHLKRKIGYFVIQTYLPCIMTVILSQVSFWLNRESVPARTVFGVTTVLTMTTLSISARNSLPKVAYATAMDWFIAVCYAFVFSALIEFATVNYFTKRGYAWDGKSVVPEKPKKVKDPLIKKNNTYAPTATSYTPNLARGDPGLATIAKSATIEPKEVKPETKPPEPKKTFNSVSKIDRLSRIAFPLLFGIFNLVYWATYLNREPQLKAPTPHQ
T1 sequence (P47870 25-512 limits assumed): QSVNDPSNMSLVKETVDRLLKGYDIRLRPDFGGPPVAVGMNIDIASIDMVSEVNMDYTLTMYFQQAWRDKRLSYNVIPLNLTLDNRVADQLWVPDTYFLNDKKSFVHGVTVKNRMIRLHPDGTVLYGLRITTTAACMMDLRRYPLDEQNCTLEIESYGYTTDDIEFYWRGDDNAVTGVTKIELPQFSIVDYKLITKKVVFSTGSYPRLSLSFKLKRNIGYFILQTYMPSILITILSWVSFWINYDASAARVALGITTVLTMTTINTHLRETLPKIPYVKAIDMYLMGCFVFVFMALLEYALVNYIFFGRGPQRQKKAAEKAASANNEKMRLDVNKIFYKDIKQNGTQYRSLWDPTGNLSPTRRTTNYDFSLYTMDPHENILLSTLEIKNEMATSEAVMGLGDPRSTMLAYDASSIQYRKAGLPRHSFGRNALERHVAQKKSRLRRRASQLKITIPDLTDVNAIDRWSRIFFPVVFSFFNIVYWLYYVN
T1 sequence (P18507 40-475): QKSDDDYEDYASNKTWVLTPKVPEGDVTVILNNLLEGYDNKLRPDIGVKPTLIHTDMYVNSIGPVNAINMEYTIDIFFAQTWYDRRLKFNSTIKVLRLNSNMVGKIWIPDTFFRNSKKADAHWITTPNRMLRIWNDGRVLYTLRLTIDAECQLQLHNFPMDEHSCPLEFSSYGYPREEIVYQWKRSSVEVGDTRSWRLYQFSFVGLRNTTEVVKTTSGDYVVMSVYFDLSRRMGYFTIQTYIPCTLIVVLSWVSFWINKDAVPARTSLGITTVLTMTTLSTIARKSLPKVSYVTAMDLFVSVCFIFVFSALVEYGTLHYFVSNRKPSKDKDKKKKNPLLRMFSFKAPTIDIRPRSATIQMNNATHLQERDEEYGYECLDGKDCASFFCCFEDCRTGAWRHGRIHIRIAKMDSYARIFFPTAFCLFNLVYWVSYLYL

`C[C@H]1c2cccc(C(C)(C)O)c2C[C@H](CO)N1C(=O)Cc1c(Cl)ccc2[nH]nc(Cl)c12` [compound of formula (I), 2-(3,5-dichloro-1H-indazol-4-yl)-1-[(1S,3R)-3-(hydroxymethyl)-5-(1-hydroxy-1-methyl-ethyl)-1-methyl-3,4-dihydro-1H-isoquinolin-2-yl]ethanone]: the inhibition (commonly the relative decrease from the control value, in per cent) at 10 µM in assay [1] was less than 0.1%. Further, the Emax at 10 µM at dopamine D1 receptor [2] is less than 20%. The “Erel (relative efficacy, maximal % potentiation vs dopamine maximal response)” value at dopamine D1 receptor [3] (in presence of [EC20] dopamine (1.1 nM), dopamine maximum = 100%) was “about 62%”. Besides, the pEC50 (in general, the negative decadic logarithm of the EC50, by convention in mol/L) on dopamine D1 receptor [3] (potentiation of cAMP in presence of [EC20] dopamine (1.1 nM), LMtk (Ltk−) cells expressing D1) was ~8.20 and > 7.50.

Source of the values: patent US12649726B2, “Substituted tetrahydroisoquinoline derivative as a D1 positive allosteric modulator” (UCB Biopharma SRL, priority 2020, dated 2026).
